Target: human GluN1/GluN2B NMDA receptors (Homo sapiens, UniProt Q05586+Q13224)
Assay: Cell-based calcium flux (FLIPR) assay on cloned human NR1/NR2B ion channels expressed in mammalian cells
Conditions: standard assay; glutamate at ~EC80; FLIPR calcium flux
Procedure: Effects of Test Articles on Cloned Human NR1/NR2B Ion Channels Expressed in Mammalian Cells
NMDA receptors are ion channels that are highly permeable to Ca^2+ ions, rendering it possible to monitor NMDA receptor function using cell-based calcium flux assay. In this assay, co-agonists glutamate and glycine are added to cells heterologously expressing human GluN1/GluN2B NMDA receptors to initiate cellular Ca^2+ influx. The time course of the changes in intracellular calcium is measured using a fluorescent dye and a FLIPR (Fluorometric Imaging Plate Reader) device.
Twenty four hours before measurements, the expression of the NMDA receptors in the stable cell line is induced with Tet-On inducible system in the presence of a non-selective NMDA receptor blocker. On the day of the experiment, cell culture media is carefully washed and the cells are loaded with Calcium 5 Dye Kit (Molecular Devices) in dye loading buffer containing 149 mM NaCl, 4 mM KCl, 2 mM CaCl2, and 1.5 mM MgCl2, 10 mM HEPES and 5 mM D-glucose; pH 7.4. After 1 h incubation at the room temperature, the dye is washed away with the assay buffer (149 mM NaCl (standard assay) or 150 mM (HTS assay), 4 mM KCl (standard assay) or 3 mM (HTS assay), 2 mM CaCl2, 0.01 mM EDTA, 10 mM HEPES and 5 mM D-glucose; pH 7.4) In the FLIPR TETRA reader, various concentrations of the test compounds are added to the cells for 5 min while fluorescence is monitored to detect potential agonist activity. Next, co-agonists, glutamate and glycine are added for another 5 minutes. The concentration of glutamate corresponding to ˜EC80 (standard assay) or EC40 (HTS assay) is used to maximize the assay's signal window or the ability to detect NMDA receptor antagonists and negative allosteric modulators, respectively. A saturating concentration (10 μM) of glycine is also present in the assay. […] The fluorescent signal in the presence of test compounds is quantified and normalized to the signal defined by the appropriate control wells.

human GluN1/GluN2B NMDA receptors, sequence (Q13224 27-1484, other chains not shown): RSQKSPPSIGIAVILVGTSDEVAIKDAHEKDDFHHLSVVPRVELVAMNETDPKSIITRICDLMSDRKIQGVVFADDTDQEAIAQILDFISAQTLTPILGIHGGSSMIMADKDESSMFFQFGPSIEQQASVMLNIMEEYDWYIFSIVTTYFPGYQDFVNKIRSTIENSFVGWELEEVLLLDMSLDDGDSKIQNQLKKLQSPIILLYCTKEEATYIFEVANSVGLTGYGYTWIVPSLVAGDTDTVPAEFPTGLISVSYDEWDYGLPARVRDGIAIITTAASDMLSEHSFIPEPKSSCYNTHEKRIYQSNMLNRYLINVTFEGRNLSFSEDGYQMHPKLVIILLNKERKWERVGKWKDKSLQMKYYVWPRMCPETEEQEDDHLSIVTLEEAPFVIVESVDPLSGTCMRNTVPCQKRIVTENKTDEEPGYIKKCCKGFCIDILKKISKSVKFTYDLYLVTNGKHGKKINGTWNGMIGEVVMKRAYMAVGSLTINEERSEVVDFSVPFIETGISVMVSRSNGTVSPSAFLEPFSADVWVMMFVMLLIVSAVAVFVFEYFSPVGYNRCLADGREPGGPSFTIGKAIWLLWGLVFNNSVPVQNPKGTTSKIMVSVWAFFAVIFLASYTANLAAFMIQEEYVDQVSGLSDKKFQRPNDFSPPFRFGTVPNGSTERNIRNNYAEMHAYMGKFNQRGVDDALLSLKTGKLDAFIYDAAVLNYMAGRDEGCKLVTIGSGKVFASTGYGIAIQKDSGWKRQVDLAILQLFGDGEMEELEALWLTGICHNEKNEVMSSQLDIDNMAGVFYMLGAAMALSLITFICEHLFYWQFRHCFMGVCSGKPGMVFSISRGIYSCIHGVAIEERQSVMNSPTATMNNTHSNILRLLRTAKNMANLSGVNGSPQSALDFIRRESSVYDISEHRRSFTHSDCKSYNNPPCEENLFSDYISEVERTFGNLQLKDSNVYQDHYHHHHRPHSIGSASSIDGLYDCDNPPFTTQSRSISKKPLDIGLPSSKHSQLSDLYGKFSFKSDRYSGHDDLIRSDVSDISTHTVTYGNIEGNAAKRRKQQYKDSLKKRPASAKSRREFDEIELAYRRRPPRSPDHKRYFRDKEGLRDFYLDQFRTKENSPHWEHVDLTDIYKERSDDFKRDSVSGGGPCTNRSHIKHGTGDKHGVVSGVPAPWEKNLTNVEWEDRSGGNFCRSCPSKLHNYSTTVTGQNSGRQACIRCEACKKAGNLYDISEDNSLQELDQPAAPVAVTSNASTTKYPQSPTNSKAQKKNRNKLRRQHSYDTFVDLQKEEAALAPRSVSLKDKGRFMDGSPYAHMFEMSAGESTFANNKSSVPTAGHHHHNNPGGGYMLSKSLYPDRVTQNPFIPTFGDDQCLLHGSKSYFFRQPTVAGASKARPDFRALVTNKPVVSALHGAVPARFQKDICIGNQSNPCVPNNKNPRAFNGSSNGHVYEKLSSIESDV

Point of comparison: CC(F)(F)c1cc(-n2cc(COc3ncc(C(C)(O)C(F)(F)F)cn3)nn2)ccc1F (racemic) [Example 565, (R/S)-2-[2-[[1-[3-(1,1-Difluoroethyl)-4-fluoro-phenyl]triazol-4-yl]methoxy]pyrimidin-5-yl]-1,1,1-trifluoro-propan-2-ol], IC50 0.308 µM. Against it:
- CC(O)(c1cnc(OCc2cn(-c3ccc(F)c(C(F)F)c3)nn2)nc1)C(F)(F)F (racemic) [Example 404, (R/S)-2-[2-[[1-[3-(Difluoromethyl)-4-fluoro-phenyl]triazol-4-yl]methoxy]pyrimidin-5-yl]-1,1,1-trifluoro-propan-2-ol] — 1.6-fold higher, 0.482 µM
- CC(O)(c1cnc(OCc2cn(-c3ccc(F)c(C(F)(F)F)c3)nn2)nc1)C(F)(F)F (racemic) [Example 441, (R/S)-1,1,1-Trifluoro-2-[2-[[1-[4-fluoro-3-(trifluoromethyl)phenyl]triazol-4-yl]methoxy]pyrimidin-5-yl]propan-2-ol] — within 1.5-fold, 0.412 µM
- CC(O)c1cnc(OCc2cn(-c3ccc(F)c(C(F)(F)F)c3)nn2)nc1 (racemic) [Example 448, (R/S)-1-[2-[[1-[4-Fluoro-3-(trifluoromethyl)phenyl]triazol-4-yl]methoxy]pyrimidin-5-yl]ethanol] — 9.9-fold lower, 0.031 µM
- CC(F)(F)c1cc(-n2cc(COc3ncc(C(C)(O)C(F)(F)F)cn3)nn2)ccc1Cl (racemic) [Example 539, (R/S)-2-[2-[[1-[4-Chloro-3-(1,1-difluoroethyl)phenyl]triazol-4-yl]methoxy]pyrimidin-5-yl]-1,1,1-trifluoro-propan-2-ol] — within 1.5-fold, 0.45 µM
- CC(O)c1cnc(OCc2cn(-c3ccc(Cl)c(C(C)(F)F)c3)nn2)nc1 (racemic) [Example 551, (R/S)-1-[2-[[1-[4-Chloro-3-(1,1-difluoroethyl)phenyl]triazol-4-yl]methoxy]pyrimidin-5-yl]ethanol] — 22-fold lower, 0.014 µM
- CC(O)c1cnc(OCc2cn(-c3ccc(F)c(C(C)(F)F)c3)nn2)nc1 (racemic) [Example 586, (R/S)-1-[2-[[1-[3-(1,1-Difluoroethyl)-4-fluoro-phenyl]triazol-4-yl]methoxy]pyrimidin-5-yl]ethanol] — 22-fold lower, 0.014 µM

Same assay, conditions: standard assay; human GluN1/GluN2B, calcium flux (FLIPR), glutamate ~EC80

Point of comparison: FC(F)c1cccc(-n2cc(CNc3ncccn3)nn2)c1 [Example 6], IC50 10.6 µM. Against it:
- CC(Oc1ncccn1)c1cn(-c2ccc(Cl)c(OC(F)F)c2)nn1 (racemic) [Example 53, (R/S)-2-[1-[1-[4-Chloro-3-(difluoromethoxy)phenyl]triazol-4-yl]ethoxy]pyrimidine] — 410-fold lower, 0.026 µM
- Cc1cnc(OC(C)c2cn(-c3ccc(Cl)c(OC(F)F)c3)nn2)nc1 (racemic) [Example 56, (R/S)-2-[1-[1-[4-Chloro-3-(difluoromethoxy)phenyl]triazol-4-yl]ethoxy]-5-methyl-pyrimidine] — 380-fold lower, 0.028 µM
- Cc1ccnc(OC(C)c2cn(-c3ccc(Cl)c(OC(F)F)c3)nn2)n1 (racemic) [Example 59, (R/S)-2-[1-[1-[4-Chloro-3-(difluoromethoxy)phenyl]triazol-4-yl]ethoxy]-4-methyl-pyrimidine] — 260-fold lower, 0.04 µM
- CC(Oc1ncc(Cl)cn1)c1cn(-c2ccc(Cl)c(OC(F)F)c2)nn1 (racemic) [Example 60, (R/S)-5-Chloro-2-[1-[1-[4-chloro-3-(difluoromethoxy)phenyl]triazol-4-yl]ethoxy]pyrimidine] — 330-fold lower, 0.032 µM
- CC(O)c1cnc(OCc2cn(-c3ccc(F)c(C(F)F)c3)nn2)nc1 (racemic) [Example 157, (R/S)-1-[2-[[1-[3-(Difluoromethyl)-4-fluoro-phenyl]triazol-4-yl]methoxy]pyrimidin-5-yl]ethanol] — 590-fold lower, 0.018 µM
- CC(N)c1ccnc(OCc2cn(-c3ccc(F)c(OC(F)F)c3)nn2)n1 (racemic) [Example 163, (R/S) 1-[2-[[1-[3-(Difluoromethoxy)-4-fluoro-phenyl]triazol-4-yl]methoxy]pyrimidin-4-yl]ethanamine] — 7.6-fold lower, 1.4 µM
- CC(F)(F)c1cccc(-n2cc(COc3ncc(C(C)(O)C(F)(F)F)cn3)nn2)c1 (racemic) [Example 305, (R/S)-2-[2-[[1-[3-(1,1-Difluoroethyl)phenyl]triazol-4-yl]methoxy]pyrimidin-5-yl]-1,1,1-trifluoro-propan-2-ol] — 21-fold lower, 0.496 µM
- CC(O)c1cnc(OCc2cn(-c3cccc(C(C)(F)F)c3)nn2)nc1 (racemic) [Example 310, (R/S)-1-[2-[[1-[3-(1,1-Difluoroethyl)phenyl]triazol-4-yl]methoxy]pyrimidin-5-yl]ethanol] — 290-fold lower, 0.037 µM
- COC(C)c1cnc(OCc2cn(-c3cccc(C(C)(F)F)c3)nn2)nc1 (racemic) [Example 311, (R/S)-2-[[1-[3-(1,1-Difluoroethyl)phenyl]triazol-4-yl]methoxy]-5-(1-methoxyethyl)pyrimidine] — 6.7-fold lower, 1.58 µM
- CC(Oc1ncccn1)c1cn(-c2ccc(Cl)c(OC(F)F)c2)nn1 (single isomer, unassigned) [Example 54, (R*)-2-[1-[1-[4-Chloro-3-(difluoromethoxy)phenyl]triazol-4-yl]ethoxy]pyrimidine] — 2.3-fold lower, 4.64 µM
- CC(Oc1ncccn1)c1cn(-c2ccc(Cl)c(OC(F)F)c2)nn1 (single isomer, unassigned) [Example 55, (S*)-2-[1-[1-[4-Chloro-3-(difluoromethoxy)phenyl]triazol-4-yl]ethoxy]pyrimidine] — 1300-fold lower, 0.008 µM
- Cc1cnc(OC(C)c2cn(-c3ccc(Cl)c(OC(F)F)c3)nn2)nc1 (single isomer, unassigned) [Example 57, (R*)-2-[1-[1-[4-Chloro-3-(difluoromethoxy)phenyl]triazol-4-yl]ethoxy]-5-methyl-pyrimidine] — 31-fold lower, 0.338 µM
- Cc1cnc(OC(C)c2cn(-c3ccc(Cl)c(OC(F)F)c3)nn2)nc1 (single isomer, unassigned) [Example 58, (S*)-2-[1-[1-[4-Chloro-3-(difluoromethoxy)phenyl]triazol-4-yl]ethoxy]-5-methyl-pyrimidine] — 1500-fold lower, 0.007 µM
- FC(F)c1cc(-n2cc(COc3ncccn3)nn2)ccc1Cl [Example 1, 2-((1-(4-Chloro-3-(difluoromethyl)phenyl)-1H-1,2,3-triazol-4-yl)methoxy)pyrimidine] — 220-fold lower, 0.049 µM
- FC(F)Oc1cc(-n2cc(CNc3ccccn3)nn2)ccc1Cl [Example 2, N-((1-(4-Chloro-3-(difluoromethoxy)phenyl)-1H-1,2,3-triazol-4-yl)methyl)pyridin-2-amine] — 50-fold lower, 0.213 µM
- Fc1ccc(-n2cc(CNc3ncccn3)nn2)cc1C(F)(F)F [Example 3, N-[[1-[4-Fluoro-3-(trifluoromethyl)phenyl]triazol-4-yl]methyl]pyrimidin-2-amine] — 3.8-fold lower, 2.8 µM
- Fc1ccc(-n2cc(COc3ccccn3)nn2)cc1OC(F)F [Example 4, 2-[[1-[3-(Difluoromethoxy)-4-fluoro-phenyl]triazol-4-yl]methoxy]pyridine] — 27-fold lower, 0.392 µM
- FC(F)Oc1cc(-n2cc(COc3cccnc3)nn2)ccc1Cl [Example 5, 3-[[1-[4-Chloro-3-(difluoromethoxy)phenyl]triazol-4-yl]methoxy]pyridine] — 32-fold lower, 0.333 µM
- Cn1ccnc1NCc1cn(-c2ccc(F)c(OC(F)F)c2)nn1 [Example 7, N-[[1-[3-(Difluoromethoxy)-4-fluoro-phenyl]triazol-4-yl]methyl]-1-methyl-imidazol-2-amine] — 5.7-fold lower, 1.87 µM
- Cc1cccc(OCc2cn(-c3ccc(F)c(OC(F)F)c3)nn2)n1 [Example 8, 2-[[1-[3-(Difluoromethoxy)-4-fluoro-phenyl]triazol-4-yl]methoxy]-6-methyl-pyridine] — 480-fold lower, 0.022 µM
- Fc1ccc(-n2cc(COc3ncccn3)nn2)cc1Br [Example 9, 2-[[1-(3-Bromo-4-fluoro-phenyl)triazol-4-yl]methoxy]pyrimidine] — 530-fold lower, 0.02 µM
- FC(F)Oc1cc(-n2cc(COc3ncccn3)nn2)ccc1Cl [Example 10, 2-[[1-[4-Chloro-3-(difluoromethoxy)phenyl]triazol-4-yl]methoxy]pyrimidine] — 1100-fold lower, 0.01 µM
- FC(F)c1cc(-n2cc(COc3ccccn3)nn2)ccc1Cl [Example 11, 2-[[1-[4-Chloro-3-(difluoromethyl)phenyl]triazol-4-yl]methoxy]pyridine] — 8.8-fold lower, 1.2 µM
- FC(F)c1cc(-n2cc(COc3ccncn3)nn2)ccc1Cl [Example 12, 4-[[1-[4-Chloro-3-(difluoromethyl)phenyl]triazol-4-yl]methoxy]pyrimidine] — 4.8-fold lower, 2.23 µM
- FC(F)Oc1cc(-n2cc(COc3ccncn3)nn2)ccc1Cl [Example 13, 4-[[1-[4-Chloro-3-(difluoromethoxy)phenyl]triazol-4-yl]methoxy]pyrimidine] — 12-fold lower, 0.879 µM
- FC(F)Oc1cc(-n2cc(COc3cccnn3)nn2)ccc1Cl [Example 14, 3-[[1-[4-Chloro-3-(difluoromethoxy)phenyl]triazol-4-yl]methoxy]pyridazine] — 26-fold lower, 0.401 µM
- COc1cc(-n2cc(COc3ncccn3)nn2)ccc1Cl [Example 15, 2-[[1-(4-Chloro-3-methoxy-phenyl)triazol-4-yl]methoxy]pyrimidine] — 15-fold lower, 0.699 µM

From US10233173B2, “Substituted 1,2,3-triazoles as NR2B-selective NMDA modulators” (JANSSEN PHARMACEUTICA NV, priority 2016, dated 2019)
